Our source for the IC50, melting point and Kd values is patent US7960393B2, “Pyrimidine derivatives useful for the treatment of diseases mediated by CRTH2” (Actimis Pharmaceuticals, Inc., priority 2002, dated 2011).

SMILES strings stand for the structures. Read-outs that look alike come from different tables or passages of the source.

As a reminder, the melting point is the temperature of the solid-liquid transition. In general, Kd refers to the equilibrium constant for the complex coming apart. A lower Kd goes with a tighter complex.

Data set [1] deals with T1, human CRTH2 (Homo sapiens, UniProt Q9Y5Y4).
T1 construct: expressed in transfected cells; host or cells: L1.2 cells, pEAK expression vector, puromycin-selected
T1 sequence (Q9Y5Y4 1-395): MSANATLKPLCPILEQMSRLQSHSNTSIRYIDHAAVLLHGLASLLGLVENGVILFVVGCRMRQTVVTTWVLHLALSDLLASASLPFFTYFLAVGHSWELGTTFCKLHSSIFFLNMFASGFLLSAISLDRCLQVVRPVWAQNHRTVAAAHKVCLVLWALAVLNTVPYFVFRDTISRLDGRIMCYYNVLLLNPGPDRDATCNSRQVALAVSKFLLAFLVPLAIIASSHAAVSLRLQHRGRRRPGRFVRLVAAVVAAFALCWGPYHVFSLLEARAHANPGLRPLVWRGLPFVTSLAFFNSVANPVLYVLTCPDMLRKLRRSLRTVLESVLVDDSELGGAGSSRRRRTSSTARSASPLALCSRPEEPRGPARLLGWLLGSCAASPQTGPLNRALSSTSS
The data set can be described thus: Measurement of Ca2+ mobilization in the human CRTH2-transfected L1.2 cell line (Assay 1). The format is cell-based. An outline of the steps:
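Human CRTH2 was stably expressed in L1.2 cells (puromycin-selected) loaded with Fluo-3AM (1 μM final) for 60 min at room temperature. Buffer was 20 mM HEPES pH 7.6, 0.1% BSA, 1 mM probenecid in Hanks'. Cells (2×10^5/well) got compound for 5 min at RT, with fluorescence at 480 nm. IC50 bins: A ≤10 nM, B ≤100 nM, C ≤500 nM, D above; samples were solid-phase products of about 40–90% purity.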
Background: A change in cytosolic calcium serves as a functional read-out for many receptors and channels.

The target in data set [2] is T1, human CRTH2. The data set is described as follows: Human CRTH2 receptor binding assay (Assay 2). As to conditions: binding to puromycin-resistant human CRTH2 L1.2 transfectants. As for the experimental part: Human CRTH2 cDNA was amplified from human eosinophil cDNA with gene specific primers containing restriction sites for cloning into pEAK vector (Edge Bio Systems). The human CRTH2 cDNA was cloned into the mammalian expression vector pEAK. This expression plasmid (40 μg) was transfected into L1.2 cells, at a cell density of 1×10^7 cells/500 μl, by using electroporation apparatus (Gene Pulser II, BioRad) at 250V/1,000 μF. One day after the transfection, puromycin (1 μg/ml, Sigma) was added into the cell culture plates. Two weeks after the transfection, grown cells were picked up for further growth.
[Human CRTH2 Receptor Binding Assay] (Assay 2)
CRTH2 transfectants were washed once with PBS and resuspended in binding buffer (50 mM Tris-HCl, pH7.4, 40 mM MgCl2, 0.1% BSA, 0.1% NaN3). 100 μl of cell suspension (2×10^5 cells), [^3H]-labeled PGD2, and various concentrations of test compound were then mixed in a 96-well U-bottom polypropylene plate and incubated for […] at room temperature to allow binding to occur. […] Scintillant was added to the filtration plate, and radioactivity remaining on the filter was measured by TopCount (Packard), a scintillation counter. Non-specific binding was determined by incubating the cell suspension and [^3H]-labeled PGD2 in the presence of 1 μM of unlabeled PGD2.

[3] abbreviates: PGD2-induced Ca2+ mobilization in CRTH2-transfected L1.2 cells, compounds as yielded by solid phase synthesis, purity about 40 to 90%, read-out: Activity class.

With `CN(C)c1nc(Cc2ccc(NC(=O)c3ccc(Cl)cc3)cc2)nc(N2CCCC2)c1CC(=O)O` [Example 7-29], the melting point lay in the range of 140 to 142 °C. Besides, the IC50 at human CRTH2 [1] (setting [3]) lay within 10 to 100 nM.

`CN(C)c1nc(Cc2ccc(NC(=O)c3ccc(F)cc3)cc2)nc(N2CCOCC2)c1CC(=O)O` [Example 7-30] had a melting point of 197 to 198 °C. Moreover, the IC50 on human CRTH2 [1] (setting [3]) lay within 100 to 500 nM.

Turning to `COCc1nc(Cc2ccc(NC(=O)c3ccc4ccccc4c3)cc2)nc(N(C)C)c1CC(=O)O` [Example 8-6], the melting point fell in the range of 128 to 131 °C. Besides, the IC50 at human CRTH2 [1] (setting [3]) is < 10 nM.

Turning to `COCc1nc(Cc2ccc(NC(=O)c3ccc(C(F)(F)F)cc3)cc2)nc(N(C)C)c1CC(=O)O` [Example 8-7], the melting point lay in the range of 126 to 128 °C. Also, the IC50 at human CRTH2 [1] (setting [3]) was < 10 nM.

`CCc1nc(Cc2ccc(NC(=O)c3ccc4ccccc4c3)cc2)nc(N(C)C)c1CC(=O)O` [Example 8-8] had a melting point of 148 to 150 °C. Moreover, the IC50 on human CRTH2 [1] (setting [3]) is < 10 nM.

Molecule `CCc1nc(Cc2ccc(NC(=O)c3ccc(C(F)(F)F)cc3)cc2)nc(N(C)C)c1CC(=O)O` [Example 8-9] yielded a melting point of 153 to 155 °C. The IC50 on human CRTH2 [1] (setting [3]) was < 10 nM.

Take `CC(C)c1nc(Cc2ccc(NC(=O)c3ccc4ccccc4c3)cc2)nc(N(C)C)c1CC(=O)O` [Example 8-10]: the melting point was in the range of 158 to 160 °C. Further, at human CRTH2 [1] (setting [3]), the IC50 fell in the range of 10 to 100 nM.

For the molecule `CC(C)c1nc(Cc2ccc(NC(=O)c3ccc(C(F)(F)F)cc3)cc2)nc(N(C)C)c1CC(=O)O` [Example 8-11], the melting point lay in the range of 145 to 148 °C. Further, the IC50 at human CRTH2 [1] (setting [3]) lay within 10 to 100 nM.

Molecule `CN(C)c1nc(Cc2ccc(NC(=O)OCc3ccccc3)cc2)ncc1CC(=O)O` [Example 9-1, [2-(4-{[(Benzyloxy)carbonyl]amino}benzyl)-4-(dimethylamino)pyrimidin-5-yl]acetic acid] displayed a melting point of 101 to 104 °C. Besides, the IC50 at human CRTH2 [1] (setting [3]) lay in the range of 10 to 100 nM.

`CN(C)c1nc(Cc2ccc(NC(=O)OCc3ccc(F)cc3)cc2)ncc1CC(=O)O` [Example 9-2, {4-(dimethylamino)-2-[4-({[(4-fluorobenzyl)oxy]carbonyl}amino)benzyl]pyrimidin-5-yl}acetic acid] returned a melting point of 95 to 97 °C. In addition, the IC50 at human CRTH2 [1] is < 10 nM.

For `CN(C)c1nc(Cc2ccc(NC(=O)OCc3ccccc3)cc2)nc(Cl)c1CC(=O)O` [Example 9-3], the melting point fell in the range of 88 to 91 °C. In addition, the IC50 at human CRTH2 [1] (setting [3]) was < 10 nM.

Regarding `COCc1nc(Cc2ccc(NC(=O)OCc3ccccc3)cc2)nc(N(C)C)c1CC(=O)O` [Example 9-5], the melting point was 88 to 90 °C. Further, on human CRTH2 [1] (setting [3]), the IC50 was > 500 nM.

As for `CCc1nc(Cc2ccc(NC(=O)OCc3ccccc3)cc2)nc(N(C)C)c1CC(=O)O` [Example 9-6], the melting point lay within 120 to 123 °C. On human CRTH2 [1] (setting [3]), the IC50 was > 500 nM.

In the case of `CN(C)c1nc(Cc2ccc(NC(=O)OCc3ccccc3)cc2)nc(N(C)C)c1CC(=O)O` [Example 9-7], the melting point was 100 °C. At human CRTH2 [1] (setting [3]), the IC50 was < 10 nM.

Regarding `CN(C)c1nc(Cc2ccc(NC(=O)OCc3ccc(C(F)(F)F)cc3)cc2)ncc1CC(=O)O` [Example 9-8], the melting point fell in the range of 91 to 93 °C. Further, the IC50 on human CRTH2 [1] (setting [3]) is < 10 nM.

In turn, `CCCCC[C@H](O)/C=C/[C@H]1C(=O)C[C@H](O)[C@@H]1C/C=C\CCCC(=O)O` [[^3H]-labeled PGD2] displayed a Kd at human CRTH2 [2] of 6.3 nM.
